# Entries after “also recorded” stand apart in the source; their conditions may differ.
# What was measured:
# [1] = tested on: CDK4; test: RT-qPCR CDK4 mRNA in MCF7; type: cell-based, human; details: MCF7, vs negative control
# Protocol: (§1) All of the extractions were conducted on ice with ice-cold reagents. Total RNA from the different cell lines was isolated using Trizol (Invitrogen; Life Technologies, USA) according to the method of Sthoeger et al.. The 260:280 ratios were measured to determine RNA quality after the isolation method was completed according to the manufacturer’s instructions. A high-capacity cDNA reverse transcription kit was used to produce complementary DNA (cDNA) (Applied Biosystems, USA). […] The relative gene expression method (i.e., ΔΔCT) was used to analyze the real-time PCR data, as explained in Applied Biosystem User Bulletin No. 2. Each sample and gene were normalized using the β-actin gene.
# [2] = tested on: BAX; test: ELISA BAX in MCF7 cells; type: cell-based, human; details: MCF7 cells treated with IC50; untreated control 4.92
# Description: (§2) Elisa assay was used to determine the concentrations of Human caspases-3, -8, Bax, and Bcl2 in PACA2- and A549-treated cells. Also, the concentrations of caspase-8, Bax, and Bcl2 in MCF7-treated cells were detected. The procedures were followed up according to the instructions described in the following kits; Invitrogen human Caspase-3 Elisa Kit, Catalog KHO1091, DRG® human Caspase-8 ELISA Kit, Catalog (EIA-4863), Human Bax ELISA Kit (ab199080) and Human Bcl-2 ELISA Kit (ab119506) respectively. Shortly, the protocol described in the above kits was as followed; at the beginning, all the reagents, samples and standards were prepared. 100 μl of samples or standard were micro pipetted to each well of micro-well strip and kept at room temperature for 2 h. After washing the micro-well strips three times with washing buffer, the prepared antibody (anti-rabbit-IgG-HRP) at a concentration of 100 μl was added to each well at room temperature for 1 h. Then, the micro-well strips were washed again three times. Afterward, the prepared tetramethyl-benzidine (TMB) solution (100 μl) was added to the micro-well strips and kept for 10 min. At last, about 50 μl of stop solution was pipetted to each well to inactivate the enzyme completely. The absorbance of all samples was measured at a wavelength of 460 nm and compared to that of the standard. Curve fitting software was used to plot a standard curve and the concentrations for the unknown samples were measured from the standard curve.
# [3] = tested on: PACA2 pancreatic cancer cells; test: MTT assay, PACA2; details: Homo sapiens, PaCa-2, 72 h
# Method in brief: (§3)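 Cells seeded at 10 × 10^4 cells/well, 24 h at 37 ℃/5% CO2, then exposed to compound for 72 h (DMSO <0.2%); MTT ([…]) added for 4 h, formazan dissolved in 10% SDS overnight, absorbance read at 595 nm with 620 nm reference. IC50 as concentration killing 50% of cells; SI = IC50 in BJ1/IC50 in cancer line.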
# [4] = tested on: caspase 8; test: ELISA caspase 8 in MCF7 cells; type: cell-based, human; details: MCF7 cells treated with IC50; untreated control 3.99
# Description: as §2
# [5] = tested on: Bcl2; test: ELISA Bcl2 in MCF7 cells; type: cell-based, human; details: MCF7 cells treated with IC50; untreated control 14.37
# Description: as §2
# [6] = tested on: Bcl-2; test: RT-qPCR Bcl-2 mRNA in MCF7; type: cell-based, human; details: MCF7, vs negative control
# Protocol: as §1
# [7] = tested on: MCF7 breast cancer cells; test: MTT assay, MCF7; details: Homo sapiens, MCF7, 72 h
# Method in brief: as §3
# [8] = tested on: IL-8; test: RT-qPCR IL-8 mRNA in MCF7; type: cell-based, human; details: MCF7, vs negative control
# Protocol: as §1
# [9] = MTT assay, normal cell line BJ1; type: cell-based; details: human, at 100 μg/ml, read-out: MTT cell proliferation mortality assay (%) BJ1
# [10] = tested on: PC3 prostate cancer cells; test: MTT assay, PC3; details: Homo sapiens, 72 h
# Method in brief: as §3
# [11] = tested on: HePG2 liver cancer cells; test: MTT assay, HePG2; details: Homo sapiens, HepG2, 72 h
# Method in brief: as §3
# [12] = tested on: DR5; test: RT-qPCR DR5 mRNA in MCF7; type: cell-based, human; details: MCF7, vs negative control
# Protocol: as §1
# [13] = tested on: A549 lung cancer cells; test: MTT assay, A549; details: Homo sapiens, A549, 72 h, read-out: MTT cell proliferation mortality assay (%) A549, at 100 μg/ml, 72 h
# Method in brief: as §3
# [14] = tested on: P53; test: RT-qPCR P53 mRNA in MCF7; type: cell-based, human; details: MCF7, vs negative control
# Protocol: as §1
structure (smiles),measurement,setting,value
"COc1ccc(-c2c(Cl)n(-c3ccc(Cl)cc3Cl)c3ncnc(N4CCOCC4)c23)cc1OC [Compound 18b, 4-(6-chloro-7-(2,4-dichlorophenyl)-5-(3,4-dimethoxyphenyl)-7H-pyrrolo[2,3-d]pyrimidin-4-yl)morpholine]",CDK4 mRNA level,[1],lowered; also recorded: down-regulated
same,BAX level (ELISA),[2],7.25 pg/mL
same,IC50,[3]; read-out: IC50 PACA2,15 ± 0.9 µg/mL
same,cytotoxicity at 100 µg/mL,[3]; read-out: MTT cell proliferation mortality assay (%) PACA2,100%
same,caspase 8 level (ELISA),[4],10.29 pg/mL
same,Bcl2 level (ELISA),[5],9.24 pg/mL
same,Bcl-2 mRNA level,[6],down-regulated
same,IC50,[7]; read-out: IC50 MCF7,3.4 ± 0.3 µg/mL
same,cytotoxicity at 100 µg/mL,[7]; read-out: MTT cell proliferation mortality assay (%) MCF7,100%
same,IL-8 mRNA level,[8],lowered; also recorded: down-regulated
same,"cytotoxicity at 72 h, 100 μg/ml",[9],20.6 ± 2.1%
same,IC50,[10]; read-out: IC50 PC3,19.2 ± 0.9 µg/mL
same,cytotoxicity at 100 µg/mL,"[10]; read-out: MTT cell proliferation mortality assay (%) PC3, at 100 μg/ml, 72 h",100%
same,IC50,[11]; read-out: IC50 HePG2,28.1 ± 0.4 µg/mL
same,cytotoxicity at 100 µg/mL,[11]; read-out: MTT cell proliferation mortality assay (%) HePG2,100%
same,DR5 mRNA level,[12],increased; also recorded: up-regulated
same,cytotoxicity at 100 µg/mL,[13],11.2 ± 0.6%
same,P53 mRNA level,[14],significantly increased; also recorded: up-regulated
